55 molecules from ChEMBL document CHEMBL1150213, “Protein-tyrosine kinase inhibition: mechanism-based discovery of antitumor agents” (J Nat Prod, 1992) can be followed below.

Broadly, the IC50 is the concentration at which inhibition is half-maximal. The Ki is the equilibrium dissociation constant of an inhibitor or competing ligand from its target. A lower Ki goes with tighter binding.

For one experiment, the target named is T1, Epidermal growth factor receptor (Homo sapiens, UniProt P00533).
T1 sequence (P00533 whole entry): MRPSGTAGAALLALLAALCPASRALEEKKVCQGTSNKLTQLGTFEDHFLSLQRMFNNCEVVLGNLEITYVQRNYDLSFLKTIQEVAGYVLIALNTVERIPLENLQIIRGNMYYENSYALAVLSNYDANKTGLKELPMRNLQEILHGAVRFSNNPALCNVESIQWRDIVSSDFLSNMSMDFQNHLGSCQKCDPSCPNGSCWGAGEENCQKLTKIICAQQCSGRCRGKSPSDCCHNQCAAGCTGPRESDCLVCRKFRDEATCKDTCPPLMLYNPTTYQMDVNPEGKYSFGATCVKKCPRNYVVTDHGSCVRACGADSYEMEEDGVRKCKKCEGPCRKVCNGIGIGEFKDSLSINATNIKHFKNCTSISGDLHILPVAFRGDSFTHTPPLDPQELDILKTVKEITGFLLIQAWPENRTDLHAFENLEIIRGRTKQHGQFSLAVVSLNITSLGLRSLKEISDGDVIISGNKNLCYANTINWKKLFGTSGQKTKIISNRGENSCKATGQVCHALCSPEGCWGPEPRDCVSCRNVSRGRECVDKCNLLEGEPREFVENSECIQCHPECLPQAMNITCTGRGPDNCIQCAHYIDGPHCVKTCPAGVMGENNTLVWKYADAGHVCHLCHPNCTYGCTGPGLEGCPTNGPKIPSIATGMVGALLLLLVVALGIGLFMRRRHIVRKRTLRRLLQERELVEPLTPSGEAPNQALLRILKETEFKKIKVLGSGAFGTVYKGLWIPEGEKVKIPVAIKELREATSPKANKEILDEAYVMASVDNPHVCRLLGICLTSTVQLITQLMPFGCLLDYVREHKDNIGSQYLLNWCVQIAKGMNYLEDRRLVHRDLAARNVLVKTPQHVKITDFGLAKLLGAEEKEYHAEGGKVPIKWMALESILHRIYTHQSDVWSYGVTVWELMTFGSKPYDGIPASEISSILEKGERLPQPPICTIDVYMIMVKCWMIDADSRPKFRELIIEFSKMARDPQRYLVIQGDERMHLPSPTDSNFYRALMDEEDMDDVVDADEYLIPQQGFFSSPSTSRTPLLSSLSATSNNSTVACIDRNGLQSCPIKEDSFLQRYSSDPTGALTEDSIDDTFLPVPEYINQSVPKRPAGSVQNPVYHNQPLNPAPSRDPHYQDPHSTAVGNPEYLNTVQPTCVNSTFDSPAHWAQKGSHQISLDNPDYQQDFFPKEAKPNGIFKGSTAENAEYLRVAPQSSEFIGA
Description: Inhibition of EGFR in human A431 cells
`CC(C)(C)OC(=O)NCCNC(=O)c1ccc(S(=O)(=O)Oc2ccc(/C=C/[N+](=O)[O-])cc2)cc1` showed an IC50 of 1 µM.

In the case of `CC(C)NC(=O)c1ccc(S(=O)(=O)Oc2ccc(/C=C/[N+](=O)[O-])cc2)cc1`, the IC50 was found to be 1 µM.

The target of the next experiment is T1, Epidermal growth factor receptor. The source holds these as a separate data set.
In the case of `COc1cc(/C=C(\C#N)C(N)=O)cc(CSc2ccccc2)c1O`, the IC50 came to 0.5 µM.

`CCOC(=O)C(=O)Oc1ccc(-c2c(C(=O)OCC)oc3cc(O)cc(O)c3c2=O)cc1` had an IC50 of 1 µM.

As to `COC(=O)/C=C/c1cc(O)ccc1O`, the IC50 was 103 µM.

For `O=C(O)c1oc2cc(O)cc(O)c2c(=O)c1-c1ccc(O)cc1`, the IC50 was 6.36 µM. This IC50 is about 16-fold lower than that of the molecule before.

Take `O=C(O)/C=C/c1cc(O)ccc1O`: the IC50 was 44.4 µM.

Regarding `O=CN/C=C/c1ccc(O)c(O)c1O`, it took 4.61 µM to reach half-maximal inhibition (IC50).

`O=CN/C=C/c1ccc(O)c(O)c1`: half-maximal inhibition (IC50) was put at 5.58 µM.

On to `CCOc1cc(/C=C(\C#N)C(N)=O)cc(CSc2ccc(O)cc2)c1O`, for which half-maximal inhibition (IC50) required 3 µM.

In the case of `COc1ccc(O)c(/C=C/NC=O)c1`, the IC50 was over 31.1 µM.

`CCOc1cc(/C=C(\C#N)C(N)=O)cc(CSc2ccccc2)c1O` displayed an IC50 of 0.4 µM.

In turn, `O=CN/C=C/c1ccccc1O` yielded an IC50 of over 613 µM.

Consider `O=CN/C=C/c1ccc(O)cc1`, for which the IC50 was over 61.3 µM.

Consider `O=CN/C=C/c1ccc(O)cc1O`, for which the IC50 was over 167 µM.

Molecule `O=CN/C=C/c1cccc(O)c1O` had an IC50 of 1.67 µM.

Regarding `CC(=O)N/C=C/c1cc(O)ccc1O`, inhibition was half-maximal at 15.5 µM (IC50).

Regarding `N#C/C(=C\c1cc(CSc2ccccc2)c(O)c(OCc2ccccc2)c1)C(N)=O`, it took 0.8 µM to reach half-maximal inhibition (IC50). Compared with the last molecule, the IC50 is about 19-fold lower.

`CC(C)(C)c1cc(/C=C(\C#N)C(N)=O)cc(C(C)(C)C)c1O`: the IC50 came out at 50 µM.

Consider `N#C/C(=C\c1cc(-c2ccccc2)c(O)c(-c2ccccc2)c1)C(N)=O`, for which 0.4 µM corresponded to half-maximal inhibition (IC50).

`CCOc1cc(/C=C2/CCNC2=O)cc(CSc2ccccc2)c1O` registered an IC50 of 0.9 µM.

In the case of `O=CN/C=C/c1cccc(O)c1`, the IC50 was over 61.3 µM.

In turn, `CC(C)c1cc(/C=C(\C#N)C(N)=O)cc(C(C)C)c1O` came in with an IC50 of 1 µM.

In turn, `O=CN/C=C/c1cc(Br)ccc1O` had a half-inhibitory concentration (IC50) of over 24.8 µM.

On to `CCOc1cc(/C=C(\C#N)C(N)=O)cc(CSc2ccc(C)cc2)c1O`, for which the IC50 was 20 µM.

Take `Cc1oc2cc(O)cc(O)c2c(=O)c1-c1ccc(O)cc1`: inhibition was half-maximal at 7.04 µM (IC50). Compared with the last molecule, the IC50 is about 2.8-fold lower.

For `CSCc1cc(/C=C2\C(=O)Nc3ccccc32)cc(CSC)c1O`, half-maximal inhibition (IC50) was put at 0.4 µM. Against the preceding molecule, the IC50 is about 18-fold lower.

Consider `N#C/C(=C/c1cc(Cc2ccccc2)c(O)c(Cc2ccccc2)c1)C(N)=O`, for which the IC50 turned out to be 0.6 µM.

Molecule `N#CC(C#N)=C1C(=O)Nc2ccc(O)cc21` gave an IC50 of 10 µM.

The molecule `N#CC(C#N)=C1C(=O)Nc2cc(O)c(O)cc21` yielded an IC50 of 3 µM. This IC50 lies about 3.3-fold lower than the previous one.

`CC(C)c1cc(/C=C2\C(=O)Nc3ccccc32)cc(C(C)C)c1O` came in with an IC50 of 0.4 µM. This IC50 is about 7.5-fold lower than that of the molecule before.

`CC(C)C[C@H](NC(=O)[C@H](CCCNC(=N)N)NC(=O)[C@@H](N)CCCNC(=N)N)C(=O)N[C@@H](CCC(=O)O)C(=O)N[C@@H](CCC(=O)O)C(=O)N[C@@H](CCC(=O)O)C(=O)N[C@@H](CCC(=O)O)C(=O)N[C@@H](CCC(=O)O)C(=O)N[C@@H](C)C(=O)N[C@@H](Cc1c(F)c(F)c(O)c(F)c1F)C(=O)NCC(=O)O` (stereo in doubt; 187D) returned a Ki of 20 µM. In other words, the double-digit micromolar range.

Molecule `CC(C)C[C@H](NC(=O)[C@H](CCCNC(=N)N)NC(=O)[C@@H](N)CCCNC(=N)N)C(=O)N[C@@H](CCC(=O)O)C(=O)N[C@@H](CCC(=O)O)C(=O)N[C@@H](CCC(=O)O)C(=O)N[C@@H](CCC(=O)O)C(=O)N[C@@H](CCC(=O)O)C(=O)N[C@@H](C)C(=O)N[C@@H](Cc1c(F)c(F)c(O)c(F)c1F)C(=O)NCC(=O)O` (stereo in doubt; 187L) had a Ki of 4 µM. This Ki lies about 5-fold lower than the previous one.

The target in the next experiment is T2, Tyrosine-protein kinase transforming protein Abl (Abelson murine leukemia virus, UniProt P00521).
T2 sequence (P00521 whole entry): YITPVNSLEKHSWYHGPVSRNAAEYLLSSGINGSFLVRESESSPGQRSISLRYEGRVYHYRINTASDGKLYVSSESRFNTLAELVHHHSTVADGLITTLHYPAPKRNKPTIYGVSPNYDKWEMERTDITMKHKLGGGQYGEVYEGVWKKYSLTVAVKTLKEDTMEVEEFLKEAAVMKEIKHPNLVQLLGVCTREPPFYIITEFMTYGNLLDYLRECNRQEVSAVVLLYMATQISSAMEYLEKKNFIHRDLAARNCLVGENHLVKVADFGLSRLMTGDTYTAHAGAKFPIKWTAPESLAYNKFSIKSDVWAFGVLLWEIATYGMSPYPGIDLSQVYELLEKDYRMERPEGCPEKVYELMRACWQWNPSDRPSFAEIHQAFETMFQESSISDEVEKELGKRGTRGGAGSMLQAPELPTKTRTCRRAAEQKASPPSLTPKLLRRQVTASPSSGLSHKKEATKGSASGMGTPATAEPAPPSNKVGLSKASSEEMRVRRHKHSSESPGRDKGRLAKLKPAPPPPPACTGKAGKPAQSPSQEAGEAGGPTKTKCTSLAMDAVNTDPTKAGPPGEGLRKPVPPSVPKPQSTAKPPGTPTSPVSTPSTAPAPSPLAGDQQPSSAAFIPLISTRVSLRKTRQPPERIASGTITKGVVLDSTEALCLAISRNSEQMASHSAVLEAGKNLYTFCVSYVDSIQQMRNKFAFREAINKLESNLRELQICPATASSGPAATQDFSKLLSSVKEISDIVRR
Description: Inhibition of Abelson murine leukemia virus p60 v-abl
`CC(C)(C)OC(=O)NCCNC(=O)c1ccc(S(=O)(=O)Oc2ccc(/C=C/[N+](=O)[O-])cc2)cc1`: the IC50 worked out at 100 µM.

`Cc1ccc(NP(=O)(O)OP(=O)(O)OP(=O)(O)OP(=O)(O)OC[C@H]2O[C@@H](n3cnc4c(N)ncnc43)[C@H](O)[C@@H]2O)cc1` gave an IC50 of 20 µM.

`CC(=O)NC(Cc1ccc(NP(=O)(O)OP(=O)(O)OP(=O)(O)OP(=O)(O)OC[C@H]2O[C@@H](n3cnc4c(N)ncnc43)[C@H](O)[C@@H]2O)cc1)C(N)=O` (some centres not stated): the IC50 was 100 µM.

Regarding `COc1cc(/C=C/[N+](=O)[O-])ccc1OS(=O)(=O)c1ccc(C(=O)OC[C@H]2O[C@@H](n3cnc4c(N)ncnc43)[C@H](O)[C@@H]2O)cc1`, the IC50 amounted to 100 µM.

For the molecule `C[C@H](NC(=O)c1ccc(S(=O)(=O)Oc2ccc(/C=C/[N+](=O)[O-])cc2)cc1)C(=O)N[C@@H](C)C(=O)OC(C)(C)C`, half-maximal inhibition (IC50) was put at 100 µM.

`Nc1ncnc2c1ncn2[C@@H]1O[C@H](COC(=O)c2ccc(S(=O)(=O)Oc3ccccc3)cc2)[C@@H](O)[C@H]1O` came in with an IC50 of 200 µM.

For the molecule `Nc1ncnc2c1ncn2[C@@H]1O[C@H](COC(=O)c2ccc(S(=O)(=O)Nc3ccccc3)cc2)[C@@H](O)[C@H]1O`, 20 µM corresponded to half-maximal inhibition (IC50).

Take `Nc1ncnc2c1ncn2[C@@H]1O[C@H](COP(=O)(O)OP(=O)(O)OP(=O)(O)Oc2ccccc2)[C@@H](O)[C@H]1O`: the IC50 is 10 µM.

Take `Nc1ncnc2c1ncn2[C@@H]1O[C@H](COC(=O)c2ccc(S(=O)(=O)NCc3ccccc3)cc2)[C@@H](O)[C@H]1O`: the IC50 was found to be 50 µM.

Take `Cc1ccc(NP(=O)(O)OP(=O)(O)OP(=O)(O)OC[C@H]2O[C@@H](n3cnc4c(N)ncnc43)[C@H](O)[C@@H]2O)cc1`: it took 200 µM to reach half-maximal inhibition (IC50).

In the case of `COc1ccc(NP(=O)(O)OP(=O)(O)OP(=O)(O)OC[C@H]2O[C@@H](n3cnc4c(N)ncnc43)[C@H](O)[C@@H]2O)cc1`, the IC50 was 90 µM. Against the preceding molecule, the IC50 is about 2.2-fold lower.

As to `Nc1ncnc2c1ncn2[C@@H]1O[C@H](COC(=O)c2ccc(S(N)(=O)=O)cc2)[C@@H](O)[C@H]1O`, inhibition was half-maximal at 100 µM (IC50).

Molecule `C[C@H](NC(=O)[C@H](C)NC(=O)c1ccc(S(=O)(=O)Oc2ccc(/C=C/[N+](=O)[O-])cc2)cc1)C(=O)O` registered an IC50 of 40 µM.

As to `Nc1ncnc2c1ncn2[C@@H]1O[C@H](COC(=O)c2ccc(S(=O)(=O)F)cc2)[C@@H](O)[C@H]1O`, the IC50 amounted to 200 µM.

`CC(C)NC(=O)c1ccc(S(=O)(=O)Oc2ccc(/C=C/[N+](=O)[O-])cc2)cc1` returned an IC50 of over 100 µM.

In the case of `Nc1ncnc2c1ncn2[C@@H]1O[C@H](COC(=O)c2ccc(S(=O)(=O)Oc3ccc(/C=C/[N+](=O)[O-])cc3)cc2)[C@@H](O)[C@H]1O`, the IC50 is over 100 µM.

Turning to `CC(=O)NC(Cc1ccc(OS(=O)(=O)c2ccc(C(=O)OC[C@H]3O[C@@H](n4cnc5c(N)ncnc54)[C@H](O)[C@@H]3O)cc2)cc1)C(N)=O` (some centres not stated), 100 µM corresponded to half-maximal inhibition (IC50).

`CC(=O)NC(Cc1ccc(NP(=O)(O)OP(=O)(O)OP(=O)(O)OC[C@H]2O[C@@H](n3cnc4c(N)ncnc43)[C@H](O)[C@@H]2O)cc1)C(N)=O` (some centres not stated) came in with an IC50 of 40 µM. Against the preceding molecule, the IC50 is about 2.5-fold lower.

The molecule `Nc1ncnc2c1ncn2[C@@H]1O[C@H](COC(=O)c2ccc(S(=O)(=O)NCCCc3ccccc3)cc2)[C@@H](O)[C@H]1O` displayed a half-inhibitory concentration (IC50) of 60 µM.

`CS(=O)(=O)c1ccc(C(=O)OC[C@H]2O[C@@H](n3cnc4c(N)ncnc43)[C@H](O)[C@@H]2O)cc1` returned an IC50 of 60 µM.

For the molecule `Nc1ncnc2c1ncn2[C@@H]1O[C@H](COP(=O)(O)OP(=O)(O)OP(=O)(O)OP(=O)(O)Oc2ccccc2)[C@@H](O)[C@H]1O`, half-maximal inhibition (IC50) was put at 400 µM.

As to `CC(=O)NCCNP(=O)(O)OP(=O)(O)OP(=O)(O)OC[C@H]1O[C@@H](n2cnc3c(N)ncnc32)[C@H](O)[C@@H]1O`, the IC50 is 30 µM. This IC50 is about 13-fold lower than that of the molecule before.

`CNC(=O)c1ccc(S(=O)(=O)Oc2ccc(/C=C/[N+](=O)[O-])cc2)cc1` yielded an IC50 of over 40 µM.

The molecule `O=C(O)c1ccc(S(=O)(=O)Oc2ccc(/C=C/[N+](=O)[O-])cc2)cc1` gave an IC50 of 100 µM.
